According to patent US4067997A, “Synergistic microbecidal composition and method” (priority 1976, dated 1978):
Converted amounts (≈) assume the structure as drawn.

How the values were obtained:
[1] = test system: Saccharomyces cerevisiae; assay: MIC, broth dilution (Example II); assay type: cell-based; conditions: 18 h, read-out: Inhibitory concentration
Method: (§1) Standard solutions (1000 μg/ml) of three fatty acids and polyglycerol esters thereof were prepared as described in Example I. Also sucrose esters were prepared by transferring the weighed compounds (0.2 gm. dissolved in 1 ml absolute methanol) into 200 ml of sterile Trypticase Soy Broth (TSB). These standard solutions (1000 μg/ml) were twofold serially diluted with additional sterile broth to a concentration of 125 μg/ml. A 3.8 aliquot of each dilution was asceptically delivered into sterile screw-capped culture tubes. All tubes were incubated overnight at 36° C to insure sterility. The microorganisms used in this example were the same as those used in Example I.
(§2) The inoculum, 0.05 ml of an 13-24 hour TSB culture (approximately 10^9 organisms/ml) was asceptically delivered into all dilutions of the compounds, mixed well, and incubated at 36° C. A tube of inoculated broth without the compound served as a positive control and an uninoculated set of dilutions incubated along with the test dilutions, served as a negative control.
In those cases in which the test compound itself caused turbidity, an aliquot (0.015 ml) of the mixed broth was inoculated onto an agar plate and incubated at 36° C for examination, as described in Example I. The control procedure of Example I was also repeated. […]

[2] = test system: Nocardia asteroides; assay: MIC, broth dilution (Examples I/II); assay type: cell-based, Nocardia asteroids (3308); conditions: Nocardia asteroides; read-out: Inhibitory concentration
Procedure, shortened: (§3)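 Fatty acids and derivatives were dispersed from ethanol (sucrose esters from methanol) into Trypticase Soy Broth, warmed and sonicated, then twofold diluted from 1,000 to 125 μg/ml and steam-sterilized. Tubes received ~10^7–10^9 organisms/ml broth culture and were incubated at 35–36° C. MIC is the lowest concentration without visible growth versus controls, expressed in μmol/ml.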

[3] = test system: Streptococcus Group D; assay: MIC, broth dilution (Examples I/II); assay type: cell-based; conditions: Group D Strep
Method: (§4) In order to establish comparative bactericidal and fungicidal results with homologous fatty acids, a series of experiments was performed with thirty straight-chain fatty acids and derivatives thereof. Eight different gram-negative and twelve different gram-positive organisms, representing a very broad spectrum of organisms, were used in these experiments including the fungus Candida (a yeast). Additionally, fatty acids were chosen to show the effects of saturation versus unsaturation, in the fatty acid claim. Standard solutions of the fatty acids and their derivatives were prepared by first dissolving the weighed compounds in 1 to 2 ml of 95% ethanol and immediately pouring this solution into 200 ml of Tripticase Soy Broth. These lipid compounds which are insoluble in water and broth precipitated into very small crystals or droplets. The tubes containing the suspension were warmed to approximately 70° C and were then placed in an ultrasonic tank for further solubilization of the lipid derivatives.
(§5) Standard solutions (or suspensions) at 1,000 μg/ml were twofold serially diluted with additional broth to a concentration of 125 μg/ml. A 4-ml amount of each dilution was then quickly, and with constant agitation, dispensed into appropriately labeled screw-capped glass tubes (16 by 125 mm). The tubes were sterilized with steam at 15 psi for 15 minutes. After sterilization, all tubes were cooled and incubated overnight at 35° C to insure sterility.
(§6) All compounds were compared on a molar (micromoles/milliliter) rather than on a mass basis. In the following lists of organisms used, those followed by a parenthetical number are registered with the American Type Culture Collection (ATCC); the remainder were isolates from Providence Hospital or Northland Laboratory.
One drop (0.04 ± 0.01 ml) of an 18-hr broth culture containing 10^7 and 10^9 organisms/ml was added to each dilution of the test compound, as well as to a tube of plain broth which served as the positive control. After inoculation, the contents of each tube were well mixed, and the tubes were incubated at 35° C in a 5% carbon dioxide + […] atmosphere.
The MIC is defined as the lowest concentration of compound at which no […] evidence of growth was observed when turbidity of the inoculated broth dilutions was compared with control tubes. […] Only a one-tube difference between the bactericidal and bacteriostatic concentrations was normally observed.
as §1, §2
In those cases in which the test compound itself caused turbidity, an aliquot (0.015 ml) of the mixed broth was inoculated onto an agar plate and incubated at 36° C for examination, as described in Example I. The control procedure of Example I was also repeated. The lauric, capric, and oleic acids were used as internal controls and for comparison to Example I. The minimal inhibitory concentrations (μmole/ml) for the compounds studied are given in Tables 7 and 8.

[4] = test system: Streptococcus Group A; assay: MIC, broth dilution (Examples I/II); assay type: cell-based, beta-hemolytic streptococci Group A; conditions: Group A Strep; read-out: Inhibitory concentration
Procedure, shortened: as §3

[5] = test system: E. coli; assay: MIC, broth dilution (Example II); assay type: cell-based, Escherichia coli
Method: Proteus vulgaris, P. mirabilis (14273), P. rettgeri (9250), Escherichia coli, Serratia marcescens (13880), Enterobacter-Klebsiella, Pseudomonas aeruginosa (10145), and Salmonella typhimurium.
as §1
as §2, with “control. […]” for “control.”

[6] = test system: S. aureus; assay: MIC, broth dilution (Examples I/II); assay type: cell-based, Staphylococcus aureus; conditions: Staphylococcus aureus; S. aureus; read-out: Inhibitory concentration
Method: as §4, §5, §6
One drop (0.04 ± 0.01 ml) of an 18-hr broth culture containing 10^7 and 10^9 organisms/ml was added to each dilution of the test compound, as well as to a tube of plain broth which served as the positive control. […]

## CCCCCCCCCCC(O)C(=O)OC (stereo not drawn) [Methyl, α-hydroxylaurate]
[1]
  MIC: 540 µM (≈ 124 µg/mL)
[2]
  MIC: 4340 µM (≈ 1000 µg/mL)
[3]
  Inhibition in words: Neither compound was inhibitory
[4]
  MIC: 540 µM (≈ 124 µg/mL)
[5]
  Inhibition in words: Neither compound was inhibitory
[6]
  MIC: 540 µM (≈ 124 µg/mL)
